Patent US12630528B2, “Amino aryl derivative useful as diacylglycerol acyltransferase 2 inhibitor and use thereof” (LG CHEM, LTD., priority 2019, dated 2026)

Target: T1, human DGAT2 (Homo sapiens, UniProt Q96PD7)
T1 construct: FLAG (DYKDDDDK); made in house; host or cells: Sf-21 insect cells (BacPAK baculovirus system); membrane fraction used
T1 sequence (Q96PD7 1-388): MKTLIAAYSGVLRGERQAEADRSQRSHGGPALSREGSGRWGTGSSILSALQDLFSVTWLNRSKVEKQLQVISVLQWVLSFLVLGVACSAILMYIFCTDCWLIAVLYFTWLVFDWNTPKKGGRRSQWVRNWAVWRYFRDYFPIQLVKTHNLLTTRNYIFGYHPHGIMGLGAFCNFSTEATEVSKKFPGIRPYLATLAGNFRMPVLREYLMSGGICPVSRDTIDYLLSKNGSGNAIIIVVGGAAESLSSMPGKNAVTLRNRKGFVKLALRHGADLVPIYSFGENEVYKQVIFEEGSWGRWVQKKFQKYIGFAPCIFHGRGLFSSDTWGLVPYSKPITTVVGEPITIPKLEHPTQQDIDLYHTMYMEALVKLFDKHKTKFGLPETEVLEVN
Assay: DGAT2 enzyme activity inhibition, Phospholipid FlashPlate SPA
Type: biochemical
Conditions: recombinant human DGAT2 membrane protein from Sf-21 cells; inhibition of [14C]-TG production; 37° C.
Procedure: In order to prepare the pBacPAK9-DGAT2, which is DGAT2 expression vector, the human DGAT2 gene amplified by polymerase chain reaction (PCR) was cloned into the EcoR1 and Xho1 sites of the pBacPAK9 (clonctech) vector. The nucleotide sequence of the primers used in PCR was the forward primer 5′ […] (SEQ. ID. NO: 2). The composition of the reaction solution was to contain 50 ng of cDNA clone (OriGene), 200 μM of dATP, dCTP, dTTP, dGTP, 200 nM of each primer, 1 unit of Tag DNA Polymerase (Toyobo), 1×PCR buffer, and the final volume was adjusted to 20 μl. The reaction conditions were denatured at 95° C. for 5 minutes, followed by 30 times of 94° C. for 20 seconds, 60° C. for 20 seconds, and 72° C. for 90 seconds, followed by further reaction at 72° C. for 7 minutes.
Recombinant human DGAT2 protein was expressed in Sf-21 cells, which are insect cells, by using the BacPack baculovirus expression system (Clontech). The brief manufacturing process is as follows. First, the pBacPAK9-DGAT2 expression vector was transfected with BacPAK6 virus DNA (Bsu36I digest) into sf21 cells using Bacfectin to prepare a recombinant DGAT2 expressing baculovirus. The thus prepared baculovirus was infected with Sf-21 cells at 10 MOI (multiplicity of infection), and after 72 hours, infected insect cells were collected and membrane proteins were isolated. For membrane protein separation, the cell pellet was dissolved in a sucrose solution containing 250 mM sucrose, 10 mM Tris (pH 7.4), and 1 mM ethylenediamine-tetraacetic acid (EDTA), and then homogenized by using a dounce homogenizer, and the supernatant was taken by centrifuging at 600×g for 15 minutes, and centrifuged at 100,000×g for 1 hour to discard the supernatant, and the remaining pellet was resuspended in 20 mM HEPES buffer (pH 7.4). The prepared DGAT2 overexpressing membrane protein was dispensed in 100 μl and stored at −80° C. until use. Protein concentration was quantified by using the BCA Protein Assay Kit (Thermo Scientific).
In vitro DGAT2 analysis was performed using a Phospholipid Flash Plate (PerkinElmer) based on the principle of SPA (Scintilation Proximity Assay). First, DGAT2 inhibition compounds serially diluted 5 times from 3 nM to 10 μM (final concentration, 1% DMSO) were mixed in a buffer solution containing 2 μg DGAT2-membrane protein and 20 mM HEPES, 20 mM MgCl2, 1 mg/mL BSA, 50 μM 1,2 sn-oleoyl glycerol (Sigma), put in a 96-well flash plate (FlashPlate) and reacted at 37° C. for 20 minutes, and then 1 μM [14C] ole oil CoA (PerkinElmer, NEC651050UC) was added to be a final volume of 100 μL and further reacted at 37° C. for 15 minutes. After the enzymatic reaction was completed, 100 μL of isopropanol was added, the plate was sealed with a film, and the plate was shaken slowly in a plate shaker. The next day, the amplified scintillation signal (cpm) in Topcounter (Packard) was measured to measure the degree of production of [14C]-labeled triacyl glycerol (TG) as a reaction product. The measured value when the compound was not treated was used as a positive control, and the measured value of the compound treated group was calculated as a relative % to measure the inhibition effect of the compound on TG production.

Q: Which IC50 does the source give for `CCOc1ccccc1O[C@@H]1CCCN(c2cncc(Nc3cc(-c4cccc(CC(C)(C)C(=O)O)c4)ccn3)n2)C1` [Example 44, (R)-3-(3-(2-((6-(3-(2-ethoxyphenoxy)piperidin-1-yl)pyrazin-2-yl)amino)pyridin-4-yl)phenyl)-2,2-dimethylpropanoic Acid] here?
A: Its IC50 is 4000 nM.

Q: `CCOc1ccccc1O[C@@H]1CCCN(c2cncc(Nc3cccc(N4CCC(C)(C(=O)O)C4)n3)n2)C1` (stereo partly drawn) [Example 53, 1-(6-((6-((R)-3-(2-ethoxyphenoxy)piperidin-1-yl)pyrazin-2-yl)amino)pyridin-2-yl)-3-methylpyrrolidine-3-carboxylic Acid] was tested. Which IC50 did it give?
A: The IC50 was 510 nM.

Q: Which IC50 does the source give for `CCOc1ccccc1O[C@@H]1CCCN(c2cncc(Nc3ccccn3)n2)C1` [Example 31, (R)-6-(3-(2-ethoxyphenoxy)piperidin-1-yl)-N-(pyridin-2-yl)pyrazin-2-amine] here?
A: The IC50 was 130 nM.

Q: Which IC50 does the source give for `CCOc1ccccc1O[C@@H]1CCCN(c2cncc(Nc3ccc(C(F)(F)F)c(-c4ccc(C(C)(C)C(=O)O)cc4)n3)n2)C1` [Example 109, (R)-2-(4-(6-((6-(3-(2-ethoxyphenoxy)piperidin-1-yl)pyrazin-2-yl)amino)-3-(trifluoromethyl)pyridin-2-yl)phenyl)-2-methylpropanoic Acid] here?
A: The IC50 was 1500 nM.

Q: How did the IC50 turn out when `CCOc1ccccc1O[C@@H]1CCCN(c2cncc(Nc3nccc(-c4cccc(CC(C)(C)C(=O)O)c4)n3)n2)C1` [Example 146, (R)-3-(3-(2-((6-(3-(2-ethoxyphenoxy)piperidin-1-yl)pyrazin-2-yl)amino)pyrimidin-4-yl)phenyl)-2,2-dimethylpropanoic Acid] was run?
A: Its IC50 is 390 nM.

Q: With `CCOc1cccnc1O[C@@H]1CCCN(c2cncc(Nc3ncc(C(F)(F)F)c(-c4cccc(CC(C)(C)C(=O)O)c4)n3)n2)C1` [Example 165, (R)-3-(3-(2-((6-(3-((3-ethoxypyridin-2-yl)oxy)piperidin-1-yl)pyrazin-2-yl)amino)-5-(trifluoromethyl)pyrimidin-4-yl)phenyl)-2,2-dimethylpropanoic Acid] as the compound, how does the IC50 read?
A: The IC50 was 64 nM.

Q: With `CCOc1ccccc1O[C@@H]1CCCN(c2cncc(Nc3nc4cc(CC(=O)O)ccc4o3)n2)C1` [Example 12, (R)-2-(2-((6-(3-(2-ethoxyphenoxy)piperidin-1-yl)pyrazin-2-yl)amino)benzo[d]oxazol-5-yl)acetic Acid] as the compound, how does the IC50 read?
A: Its IC50 is 3400 nM.

Q: `CCOc1ccccc1O[C@@H]1CCCN(c2cncc(Nc3ncc(F)c(-c4cccc(CC(C)(C)C(=O)O)c4)n3)n2)C1` [Example 164, (R)-3-(3-(2-((6-(3-(2-ethoxyphenoxy)piperidin-1-yl)pyrazin-2-yl)amino)-5-fluoropyrimidin-4-yl)phenyl)-2,2-dimethylpropanoic Acid] was tested. Which IC50 did it give?
A: Its IC50 is 320 nM.

Q: With `CCOc1ccccc1O[C@@H]1CCCN(c2cncc(Nc3cccc(N4CCC(CC(=O)O)CC4)n3)n2)C1` [Example 57, (R)-2-(1-(6-((6-(3-(2-ethoxyphenoxy)piperidin-1-yl)pyrazin-2-yl)amino)pyridin-2-yl)piperidin-4-yl)acetic Acid] as the compound, how does the IC50 read?
A: The IC50 was 330 nM.

Q: For `CCOc1cccnc1O[C@@H]1CCCN(c2cncc(Nc3cccc(Oc4ccc(CC(=O)O)cc4)n3)n2)C1` [Example 98, (R)-2-(4-((6-((6-(3-((3-ethoxypyridin-2-yl)oxy)piperidin-1-yl)pyrazin-2-yl)amino)pyridin-2-yl)oxy)phenyl)acetic Acid], which IC50 is on record?
A: The IC50 was 490 nM.

Q: For `CCOc1ccccc1O[C@@H]1CCCN(c2cncc(Nc3nccc(N4CCC(C(=O)O)CC4)n3)n2)C1` [Example 123, (R)-1-(2-((6-(3-(2-ethoxyphenoxy)piperidin-1-yl)pyrazin-2-yl)amino)pyrimidin-4-yl)piperidine-4-carboxylic Acid], which IC50 is on record?
A: Its IC50 is 5500 nM.

Q: With `CCOc1ccccc1O[C@@H]1CCCN(c2nccc(Nc3nccc(-c4cccc(CC(C)(C)C(=O)O)c4)n3)n2)C1` [Example 149, (R)-3-(3-(2-((2-(3-(2-ethoxyphenoxy)piperidin-1-yl)pyrimidin-4-yl)amino)pyrimidin-4-yl)phenyl)-2,2-dimethylpropanoic Acid] as the compound, how does the IC50 read?
A: Its IC50 is 5000 nM.

Q: For `CCOc1ccccc1O[C@@H]1CCCN(c2cncc(Nc3ccc(/C=C/C(=O)O)cn3)n2)C1` [Example 37, (R,E)-3-(6-((6-(3-(2-ethoxyphenoxy)piperidin-1-yl)pyrazin-2-yl)amino)pyridin-3-yl)acrylic Acid], which IC50 is on record?
A: The IC50 was over 10000 nM.

Q: How did the IC50 turn out when `CCOc1ccccc1O[C@@H]1CCCN(c2cncc(Nc3cc(-c4cccc(C(C)(C)C(=O)O)c4)ccn3)n2)C1` [Example 42, (R)-2-(3-(2-((6-(3-(2-ethoxyphenoxy)piperidin-1-yl)pyrazin-2-yl)amino)pyridin-4-yl)phenyl)-2-methylpropanoic Acid] was run?
A: The IC50 was 3700 nM.

Q: For `CCOc1ccccc1O[C@@H]1CCCN(c2cncc(Nc3ccc(C)c(-c4cccc(CC(C)(C)C(=O)O)c4)n3)n2)C1` [Example 111, (R)-3-(3-(6-((6-(3-(2-ethoxyphenoxy)piperidin-1-yl)pyrazin-2-yl)amino)-3-methylpyridin-2-yl)phenyl)-2,2-dimethylpropanoic Acid], which IC50 is on record?
A: The IC50 was 2200 nM.

Q: Which IC50 does the source give for `CCOc1ccccc1O[C@@H]1CCCN(c2cncc(Nc3ccn(CC(C)(C)C(=O)O)n3)n2)C1` [Example 21, (R)-3-(3-((6-(3-(2-ethoxyphenoxy)piperidin-1-yl)pyrazin-2-yl)amino)-1H-pyrazol-1-yl)-2,2-dimethylpropanoic Acid] here?
A: Its IC50 is over 10000 nM.

Q: `CCOc1ccccc1O[C@@H]1CCCN(c2cncc(Nc3nccc(-c4ccc(NC(C)(C)C(=O)O)cc4)n3)n2)C1` [Example 161, (R)-2-((4-(2-((6-(3-(2-ethoxyphenoxy)piperidin-1-yl)pyrazin-2-yl)amino)pyrimidin-4-yl)phenyl)amino)-2-methylpropanoic Acid] was tested. Which IC50 did it give?
A: Its IC50 is 190 nM.

Q: With `CCOc1ccccc1O[C@@H]1CCCN(c2cncc(Nc3ccc(-c4cccc(CC(C)(C)C(=O)O)c4)nc3)n2)C1` [Example 48, (R)-3-(3-(5-((6-(3-(2-ethoxyphenoxy)piperidin-1-yl)pyrazin-2-yl)amino)pyridin-2-yl)phenyl)-2,2-dimethylpropanoic Acid] as the compound, how does the IC50 read?
A: The IC50 was 1800 nM.

Q: Which IC50 does the source give for `CCOc1ccccc1O[C@@H]1CCCN(c2cncc(Nc3nc4cc(C(C)(C)C(=O)O)ccc4o3)n2)C1` [Example 13, (R)-2-(2-((6-(3-(2-ethoxyphenoxy)piperidin-1-yl)pyrazin-2-yl)amino)benzo[d]oxazol-5-yl)-2-methylpropanoic Acid] here?
A: Its IC50 is 960 nM.

Q: How did the IC50 turn out when `CCOc1ccccc1O[C@@H]1CCCN(c2cncc(Nc3ccc(F)c(-c4cccc(CC(C)(C)C(=O)O)c4)n3)n2)C1` [Example 102, (R)-3-(3-(6-((6-(3-(2-ethoxyphenoxy)piperidin-1-yl)pyrazin-2-yl)amino)-3-fluoropyridin-2-yl)phenyl)-2,2-dimethylpropanoic Acid] was run?
A: Its IC50 is 140 nM.

Q: `CCOc1ccccc1O[C@@H]1CCCN(c2cncc(Nc3ccc(C(C)(C)C(=O)O)cn3)n2)C1` [Example 49] was tested. Which IC50 did it give?
A: The IC50 was over 10000 nM.

Q: With `CCOc1cccnc1O[C@@H]1CCCN(c2cncc(Nc3ccc(F)c(-c4cc(CC(C)(C)C(=O)O)ccc4F)n3)n2)C1` [Example 106, (R)-3-(3-(6-((6-(3-((3-ethoxypyridin-2-yl)oxy)piperidin-1-yl)pyrazin-2-yl)amino)-3-fluoropyridin-2-yl)-4-fluorophenyl)-2,2-dimethylpropanoic Acid] as the compound, how does the IC50 read?
A: Its IC50 is 490 nM.

Q: `CCOc1ccccc1O[C@@H]1CCCN(c2cncc(Nc3ncccc3C(=O)O)n2)C1` [Example 34, (R)-2-((6-(3-(2-ethoxyphenoxy)piperidin-1-yl)pyrazin-2-yl)amino)nicotinic Acid] was tested. Which IC50 did it give?
A: The IC50 was over 10000 nM.
